The values below come from patent US20120010148A1, “COMBINATION THERAPIES USING NAP” (ALLON THERAPEUTICS INC., priority 2008, published 2012).

Each structure is given as a SMILES string. “Also recorded” adds a separate entry of the source.

Experiment [1] has as its system normal aging rats. The conditions noted are these: intranasal administration; cited from earlier work.
Experiment [2] relates to ischemic injury. The following applies: after ischemic injury; cited from earlier work.
The subject of experiment [3] is STOP+/− mice. Briefly: Morris water maze and probe test. The class given is in vivo, mouse. As to the method: The NAP vehicle solution (termed DD), included the following ingredients (per milliliter): 7.5 mg of NaCl, 1.7 mg of citric acid monohydrate, 3 mg of disodium phosphate dihydrate, and 0.2 mg of benzalkonium chloride solution (50%) (Alcalay R N et al., Neurosci Lett, 361(1-3): 128-131 (2004)). NAP or vehicle solution (DD) was administered to mice hand-held in a semisupine position with nostrils facing the investigator. A pipette tip was used to administer 2.5 μl/nostril. The mouse was hand-held until the solution was totally absorbed (10 s). […]
The test measures the ability of rodents to learn and remember, by spatial navigation, the place of the hidden platform in a round water maze. […] Here, mice were monitored on five consecutive swimming days. […] The time required to reach the platform during the first daily test (indicative of learning and intact reference memory) and the time required to reach the platform in the second trial [indicative of short-term (working) memory] were measured and recorded separately. […] The platform was removed from the maze and the time spent by the mice in the pool's quadrant where the platform used to be was recorded. […] Mice were released into the water and the time taken to find the platform was recorded (maximum 60 seconds). […]

For experiment [4], the system named is TNF-α, interleukin-16 (IL-16), and IL-12 in macrophages. The following applies: cited from earlier work.
The subject of experiment [5] is schizophrenia patients. The conditions noted are these: human clinical trial; cited from earlier work.

Turning to `CC[C@H](C)[C@H](NC(=O)[C@H](CO)NC(=O)[C@@H](NC(=O)[C@@H]1CCCN1C(=O)[C@H](C)NC(=O)[C@@H](N)CC(N)=O)C(C)C)C(=O)N1CCC[C@H]1C(=O)N[C@@H](CCC(N)=O)C(=O)O` [NAP], in experiment [1], the “performance in the Morris water maze” value was “improved performance”. For the same compound, the “infarct volume and motor function deficits” value in experiment [2] is “reduced infarct volume and motor function deficits”. In addition, the “probe test, time in area where the platform used to be (spatial memory)” value in experiment [3] (Example 3, STOP+/− male mice, 5th day, NAP intranasal 0.5 μg/mouse/day or clozapine IP, FIG. 10) was “significantly improved the performance; also recorded: significantly more time”. Besides, the “Morris water maze learning and memory” value in experiment [3] (Example 4, STOP+/− mice, NAP 0.5 microgram/mouse/day, clozapine 3 mg/kg/day, FIG. 13) is “protection against adverse clozapine effects on learning”. In experiment [4], the “key inflammatory cytokines TNF-α, IL-16 and IL-12” value is listed as “downregulates”. Further, in experiment [5], the “activity in schizophrenia patients” value is given as “shown activity”.
